Measurements from publication PMC6284057, “Combined Antibacterial Effects of Goat Cathelicidins With Different Mechanisms of Action” (Frontiers in Microbiology, 2018).
Like-named read-outs stand apart in the source and are kept apart here. No end group written: not given here.

Columns and labels:
E. cloacae (XDR CI 4172) = assay: microbe, parasite or virus in culture; format: cell-based, Enterobacter cloacae; conditions: read-out: Minimum inhibitory concentration
Method: (§1) Antimicrobial assay was performed as described previously ([Panteleev et al., 2017b]). Briefly, mid-log phase bacterial test cultures were diluted with the 2× Mueller-Hinton broth (MH, Sigma) supplemented with 1.8% NaCl or without it so that to reach a final cell concentration of 10^6 CFU/ml. 50 μl aliquots of the obtained bacterial suspension were added to 50 μl of the peptide solutions serially diluted with 0.1% water solution of bovine serum albumin (BSA) in 96-well flat-bottom polystyrene microplates (Eppendorf #0030730011). After incubation at 37°C and 900 rpm for 24 h the minimum inhibitory concentrations (MIC) were determined as the lowest peptide concentrations that prevented growth of a test microorganism observed as visible turbidity. The results were expressed as the median values determined on the basis of at least three independent experiments performed in triplicate.

[1] = tested on: A. baumannii (XDR CI 2675); format: cell-based, Acinetobacter baumannii; conditions: for Fractional inhibitory concentration (FICA, FICB): [X]/MICX; for Fractional inhibitory concentration (FICA, FICB) / MIC of the peptide when used together ([A], [B]): 0.9% NaCl; for MIC of the peptide when used together ([A], [B]): in the mix ChMAP-28 + mini-ChBac7.5Nα, other peptide at sub-inhibitory concentration; for MIC of the individual peptide (MICA, MICB): peptide used individually, medium with physiological NaCl (0.9%), median of 3 experiments in duplicate
Method: as §1
(§2) The peptides were twofold serially diluted with 0.1% BSA in 96-well microplates (Eppendorf #0030730011). Then, the peptide solutions were mixed in the new test plate crosswise in such a way that the resulting checkerboard contained each combination of the cathelicidins in eight doubly increasing concentrations, with wells containing the highest concentration of each peptide at opposite corners ([Berditsch et al., 2015]). Then, the antimicrobial assay was performed as described in the previous section. […] The results were expressed as the median values determined on the basis of three independent experiments performed in duplicate. Estimation of synergistic effects of different cathelicidins was performed by calculating the fractional inhibitory concentration index (FICI) according to the equation: FICI = [À]/MICÀ + [B]/MICB, where MICÀ and MICB are the MICs of the individual substances, while [A] and [B] are the MICs of A and B when used together. A synergistic effect was defined at a FICI ≤ 0.5.

[2] = tested on: E. coli XDR CI 1057 (26 days with synergy combination); conditions: Table 4, strain after 26 days with synergy combination (selection in MH broth with 0.9% NaCl)
Method: as §1, with “After incubation at 37°C and 900 rpm for 24 h the minimum inhibitory concentrations (MIC) were determined as the lowest peptide concentrations that prevented growth of a test microorganism observed as visible turbidity.” left out
(§3) Resistance induction experiments were performed using the previously described method ([Chernysh et al., 2015]) with some modifications. Briefly, on day 1, the overnight culture of wild-type bacteria was diluted with the 2× MH broth containing 1.8% NaCl so that to reach a final cell concentration of 10^6 CFU/ml. 50 μl aliquots of the obtained bacterial suspension were added to 50 μl of the peptide solutions serially diluted with 0.1% water solution of BSA in 96-well microplates (Eppendorf #0030730011). After incubation at 37°C and 900 rpm for 22 ± 2 h, MICs were determined as described above. For each subsequent daily transfer, 5 μl of the inoculum taken from the first well with a sub-inhibitory drug concentration were diluted with 1 ml of the fresh 2× MH broth supplemented with 1.8% NaCl. […] 26 repeated passages in the presence of antimicrobial agents were made for each bacterial strain during the experiment. […] Control serial passages in the absence of the agent were also performed.

[3] = tested on: E. coli XDR CI 1057 (26 days without antimicrobial agent)
Method: as §1, with “After incubation at 37°C and 900 rpm for 24 h the minimum inhibitory concentrations (MIC) were determined as the lowest peptide concentrations that prevented growth of a test microorganism observed as visible turbidity.” left out
as §3

[4] = tested on: E. coli XDR CI 1057 (26 days with mini-ChBac7.5Nα)
Method: as §1, with “After incubation at 37°C and 900 rpm for 24 h the minimum inhibitory concentrations (MIC) were determined as the lowest peptide concentrations that prevented growth of a test microorganism observed as visible turbidity.” left out
as §3

[5] = tested on: E. coli XDR CI 1057 (26 days with polymyxin B); conditions: Table 4, strain after 26 days with polymyxin B (selection in MH broth with 0.9% NaCl)
Method: as §1, with “After incubation at 37°C and 900 rpm for 24 h the minimum inhibitory concentrations (MIC) were determined as the lowest peptide concentrations that prevented growth of a test microorganism observed as visible turbidity.” left out
as §3

E. coli ML-35p [6] = format: cell-based, Escherichia coli; conditions: Mueller-Hinton broth, 10^6 CFU/ml, 0.1% BSA, 37°C, 24 h, median of at least 3 experiments
Method: as §1

P. aeruginosa PAO1 = format: cell-based, Pseudomonas aeruginosa; conditions: PAO1, 24 h
Method: as §1
The peptides were twofold serially diluted with 0.1% BSA in 96-well microplates (Eppendorf #0030730011). […] The results were expressed as the median values determined on the basis of three independent experiments performed in duplicate. […]

K. pneumoniae (CI 287) = format: cell-based, Klebsiella pneumoniae
Method: as §1, §2

E. coli C600 = format: cell-based, Escherichia coli
Method: as §1, §2

E. coli (CI 214) = format: cell-based, Escherichia coli; conditions: CI 214, 24 h
Method: as §1, §2

E. coli BL21 (DE3) = format: cell-based, Escherichia coli; conditions: BL21, 24 h
Method: as §1, §2

E. coli (XDR CI 1057) [7] = format: cell-based, Escherichia coli; conditions: for Fractional inhibitory concentration (FICA, FICB): [X]/MICX; for Fractional inhibitory concentration (FICA, FICB) / MIC of the peptide when used together ([A], [B]): 0.9% NaCl; for MIC of the peptide when used together ([A], [B]): in the mix ChMAP-28 + mini-ChBac7.5Nα, other peptide at sub-inhibitory concentration; for MIC of the individual peptide (MICA, MICB): peptide used individually, medium with physiological NaCl (0.9%), median of 3 experiments in duplicate
Method: as §1, §2

E. coli ML-35p [8] = format: cell-based, Escherichia coli; conditions: for Fractional inhibitory concentration (FICA, FICB): [X]/MICX; for Fractional inhibitory concentration (FICA, FICB) / MIC of the peptide when used together ([A], [B]): 0.9% NaCl; for MIC of the peptide when used together ([A], [B]): in the mix ChMAP-28 + mini-ChBac7.5Nα, other peptide at sub-inhibitory concentration; for MIC of the individual peptide (MICA, MICB): peptide used individually, medium with physiological NaCl (0.9%), median of 3 experiments in duplicate
Method: as §1, §2

E. coli (XDR CI 1057) [9] = assay: microbe, parasite or virus in culture; format: cell-based, Escherichia coli
Method: as §1

[10] = 0.9% NaCl, Mueller-Hinton broth, 10^6 CFU/ml, 0.1% BSA, 37°C, 24 h, median of at least 3 experiments
[11] = Table S2, XDR clinical isolate, NaCl content of medium not stated
[12] = Without NaCl, Mueller-Hinton broth, 10^6 CFU/ml, 0.1% BSA, 37°C, 24 h, median of at least 3 experiments
[13] = Table 4, strain after 26 days without antimicrobial agent (selection in MH broth with 0.9% NaCl)
[14] = With 0.9% NaCl, control strain, 26 days without antimicrobial agent
[15] = Without salt, control strain, 26 days without antimicrobial agent
[16] = Table 4, strain after 26 days with mini-ChBac7.5Nα (selection in MH broth with 0.9% NaCl)
[17] = With 0.9% NaCl, resistant strain, 26 days with mini-ChBac7.5Nα
[18] = Without salt, resistant strain, 26 days with mini-ChBac7.5Nα
[19] = Table 4, strain at 0 days of selection experiment (selection in MH broth with 0.9% NaCl)

| Sequence | MIC (E. cloacae (XDR CI 4172); [10]) [µM] | MIC (E. cloacae (XDR CI 4172); [12]) [µM] | Fractional inhibitory concentration (FICA, FICB) [1] | MIC of the peptide when used together ([A], [B]) [1] [µM] | MIC of the individual peptide (MICA, MICB) [1] [µM] | Minimum inhibitory concentration [2] [µM] | Minimum inhibitory concentration [3, 13] [µM] | Minimum inhibitory concentration [3, 14] [µM] | Minimum inhibitory concentration [3, 15] [µM] | Minimum inhibitory concentration [4, 16] [µM] | Minimum inhibitory concentration [4, 17] [µM] | Minimum inhibitory concentration [4, 18] [µM] | Minimum inhibitory concentration [5] [µM] | Minimum inhibitory concentration (E. coli ML-35p [6]; 0.9% NaCl) [µM] | Minimum inhibitory concentration (E. coli ML-35p [6]; Without NaCl) [µM] | MIC of the individual peptide (MICA, MICB) (K. pneumoniae (CI 287); CI 287, 24 h) [µM] | MIC of the individual peptide (MICA, MICB) (E. coli (CI 214)) [µM] | Fractional inhibitory concentration (FICA, FICB) (E. coli BL21 (DE3)) | MIC of the individual peptide (MICA, MICB) (E. coli BL21 (DE3)) [µM] | Fractional inhibitory concentration (FICA, FICB) (E. coli (XDR CI 1057) [7]) | also measured |
| --- | --- | --- | --- | --- | --- | --- | --- | --- | --- | --- | --- | --- | --- | --- | --- | --- | --- | --- | --- | --- | --- |
| GRFKRFRKKLKRLWHKVGPFVGPILHY [ChMAP-28] | 0.25 | 0.125 | 0.125 | 0.03 | 0.25 | 0.125 | 0.125 | 0.125 | 0.125 | 0.125 | 0.125 | 0.125 | 0.25 | 0.06 | 0.06 | 0.5 | 0.06 | 0.25 | 0.06 | 0.063 | MIC (E. cloacae (XDR CI 4172); [11]): 0.25 µM; Fractional inhibitory concentration (FICA, FICB) (P. aeruginosa PAO1): 0.5; Fractional inhibitory concentration (FICA, FICB) (K. pneumoniae (CI 287); [X]/MICX, 0.9% NaCl): 0.125; Fractional inhibitory concentration (FICA, FICB) (E. coli C600; [X]/MICX, 0.9% NaCl): 0.125-0.25; MIC of the individual peptide (MICA, MICB) (E. coli C600; peptide used individually, medium with physiological NaCl (0.9%), median of 3 experiments in duplicate): 0.125 µM; Fractional inhibitory concentration (FICA, FICB) (E. coli (CI 214)): 0.25; MIC of the peptide when used together ([A], [B]) (E. coli (XDR CI 1057) [7]): 0.008 µM; MIC of the individual peptide (MICA, MICB) (E. coli (XDR CI 1057) [7]): 0.125 µM; Fractional inhibitory concentration (FICA, FICB) (E. coli ML-35p [8]): 0.125; MIC of the peptide when used together ([A], [B]) (E. coli ML-35p [8]): 0.008 µM; MIC of the individual peptide (MICA, MICB) (E. coli ML-35p [8]): 0.06 µM; Minimum inhibitory concentration (E. coli (XDR CI 1057) [9]; [19]): 0.125 µM; Minimum inhibitory concentration (E. coli (XDR CI 1057) [9]; [11]): 0.125 µM |
| RRLRPRRPRLPRPRPRPRPRPR [mini-ChBac7.5Nα] | 4 | 1 | 0.008 | 0.5 | >32 | 8 | 8 | 8 | 1 | >128 | >256 | 1 | 64 | 4 | 0.5 | 16 | >64 | 0.125 | 8 | 0.25 | MIC of the individual peptide (MICA, MICB) (P. aeruginosa PAO1): >32 µM; Fractional inhibitory concentration (FICA, FICB) (K. pneumoniae (CI 287); CI 287, 24 h): 0.125; Fractional inhibitory concentration (FICA, FICB) (E. coli C600; C600, 24 h): 0.25; MIC of the individual peptide (MICA, MICB) (E. coli C600; C600, 24 h): 4 µM; MIC of the peptide when used together ([A], [B]) (E. coli (XDR CI 1057) [7]): 2 µM; MIC of the individual peptide (MICA, MICB) (E. coli (XDR CI 1057) [7]): 8 µM; Fractional inhibitory concentration (FICA, FICB) (E. coli ML-35p [8]): 0.25; MIC of the peptide when used together ([A], [B]) (E. coli ML-35p [8]): 1 µM; MIC of the individual peptide (MICA, MICB) (E. coli ML-35p [8]): 4 µM; Minimum inhibitory concentration (E. coli (XDR CI 1057) [9]; [19]): 8 µM |
